Strand notation (5' to 3'): a small letter for the sugar, then the base; units joined by * are phosphorothioate-linked, units joined directly phosphodiester-linked; [ ] holds rarer units or linkages, { } end groups; capitals alone tell only the bases. e = 2'-O-(2-methoxyethyl) (MOE); k = constrained ethyl (cEt); [5mC] = 5-methylcytosine; d = 2'-deoxy (DNA)
Tests used:
human APOE RNA [1] = experiment: Dose-dependent inhibition of human APOE RNA in HepG2 cells, electroporation, 50,000 cells per well, RT-PCR normalized to GAPDH (Example 4, Tables 8-10); format: cell-based; conditions: HepG2, electroporation, 16-hour treatment
Method in brief: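 HepG2 cells, 50,000 per well, electroporated with modified oligonucleotide at various concentrations. APOE RNA quantified by RT-PCR with human primer probe set RTS3073, normalized to GAPDH. Values are percent APOE RNA relative to untreated control cells.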

human APOE RNA [2] = experiment: Activity in APOE C57BL/6NTac-Apoeem7250 knock-in mice, single ICV bolus, 20 weeks (Example 13); format: in vivo; conditions: single ICV bolus 300 μg, 20 weeks post treatment, normalized to mouse Ppia
Experimental: Modified oligonucleotides described above were tested in the APOE C57BL/6NTac-Apoeem7250 knock-in mouse model described above.
APOE C57BL/6NTac-Apoeem7250 knock-in mice were divided into groups of 4 mice each. Each mouse received a single ICV bolus of 300 μg of modified oligonucleotide. A group of 2-4 mice received a single ICV bolus with PBS as a negative control.
Twenty weeks post treatment, mice were sacrificed and RNA was extracted from cortical brain tissue and spinal cord for quantitative real-time RT-PCR analysis of RNA expression of APOE using human primer probe set RTS3073 (described herein above). APOE RNA levels were normalized to mouse Ppia. Mouse Ppia was amplified using primer probe set m_cyclo24 (described herein above). Results are presented as percent human APOE RNA relative to the amount of human APOE RNA in PBS treated animals, (% control). Each experiment is identified in separate tables below.

Substance | APOE RNA (% UTC) (human APOE RNA [1]; 5 nM) | APOE RNA (% UTC) (human APOE RNA [1]; 13 nM) | APOE RNA (% UTC) (human APOE RNA [1]; 33 nM) | APOE RNA (% UTC) (human APOE RNA [1]; 82 nM) | APOE RNA (% UTC) (human APOE RNA [1]; 205 nM) | APOE RNA (% UTC) (human APOE RNA [1]; 512 nM) | APOE RNA (% UTC) (human APOE RNA [1]; 1,280 nM) | APOE RNA (% UTC) (human APOE RNA [1]; 3,200 nM) | APOE RNA (% UTC) (human APOE RNA [1]; 8,000 nM) | APOE RNA (% UTC) (human APOE RNA [1]; 20,000 nM) | IC50 (human APOE RNA [1]) [µM] | APOE RNA (% control) Cortex (human APOE RNA [2]) [% control] | APOE RNA (% control) Spinal Cord (human APOE RNA [2]) [% control]
1757563: mixed MOE/cEt gapmer TTGGTGAATCTTTATTAA, sugar eeeekddddddddkekee, linkages soossssssssssooss (eT*eTeGeG*kT*dG*dA*dA*dT*d[5mC]*dT*dT*dT*kAeTkT*eA*eA) [compound 1757563] | 95 | 103 | 84 | 94 | 76 | 67 | 54 | 41 | 17 | 8 | 1.38 | 93 | 71
1757568 (eA*e[5mC]eTeTeG*dG*dT*dG*dA*dA*dT*d[5mC]*dT*dT*dT*kAkTeT*eA*eA; antisense) [Compound 1757568] | 86 | 87 | 104 | 96 | 93 | 63 | 47 | 31 | 21 | 19 | 1.39 | 73 | 58
1757581 (eT*eTeGeGkT*dG*dA*dA*dT*d[5mC]*dT*dT*dT*dA*dT*eTeAeA*eA*e[5mC]; antisense) [Compound 1757581] | 83 | 85 | 100 | 78 | 76 | 58 | 33 | 25 | 15 | 8 | 0.68 | 87 | 75
1757570 (eA*e[5mC]eTeTkG*dG*dT*dG*dA*dA*dT*d[5mC]*dT*dT*dT*kAkTeT*eA*eA; antisense) [Compound 1757570] | 154 | – | – | 151 | 62 | 26 | 42 | 22 | 18 | 18 | 0.58 | 64 | 48
1757586 (eT*eTeGeGkT*dG*dA*dA*dT*d[5mC]*dT*dT*dT*dA*dT*kTkAeA*eA*e[5mC]; antisense) [Compound 1757586] | 202 | 246 | 52 | 157 | 129 | 34 | 27 | 20 | 19 | – | 0.5 | 88 | 83
1757556: mixed MOE/cEt gapmer TTGGTGAATCTTTATTAA, sugar eeeeeddddddddekkee, linkages soossssssssssooss (eT*eTeGeG*eT*dG*dA*dA*dT*d[5mC]*dT*dT*dT*eAkTkT*eA*eA) [compound 1757556] | 92 | 93 | 98 | 103 | 101 | 65 | 71 | 60 | 35 | 13 | 3.53 | 99 | 82

— patent US20250353873A1, “COMPOUNDS AND METHODS FOR MODULATING APOE EXPRESSION” (Ionis Pharmaceuticals, Inc., priority 2024, published 2025)
